Literature values in patent US10717749B2, “Macrocyclic sulfondiimine compounds” (BAYER PHARMA AKTIENGESELLSCHAFT, priority 2015, dated 2020).

Conditions: in vivo; cited from earlier work

## C[N+]1(C)[C@@H]2C[C@@H](OC(=O)C(O)(c3cccs3)c3cccs3)C[C@H]1[C@@H]1O[C@@H]12 [tiotropium]
  duration of protection against bronchospasms: more than 6 hours
